According to PMC12999171 (eLife, 2026):

How the values were obtained:
iGABASnFR2n = iGABASnFR2n (Pseudomonas fluorescens, UniProt A0A1B3D787, F126L/F129H/N285A/S124A); assay: biochemical; type: binding
Text: (§1) The fluorescence data was fitted to the Hill function in GraphPad Prism to determine affinity values.

iGABASnFR1 = iGABASnFR1 (Pseudomonas fluorescens, UniProt A0A1B3D787, F126L/N285A); assay: biochemical; type: binding
iGABASnFR1, sequence (A0A1B3D787 27-341, stated change not applied): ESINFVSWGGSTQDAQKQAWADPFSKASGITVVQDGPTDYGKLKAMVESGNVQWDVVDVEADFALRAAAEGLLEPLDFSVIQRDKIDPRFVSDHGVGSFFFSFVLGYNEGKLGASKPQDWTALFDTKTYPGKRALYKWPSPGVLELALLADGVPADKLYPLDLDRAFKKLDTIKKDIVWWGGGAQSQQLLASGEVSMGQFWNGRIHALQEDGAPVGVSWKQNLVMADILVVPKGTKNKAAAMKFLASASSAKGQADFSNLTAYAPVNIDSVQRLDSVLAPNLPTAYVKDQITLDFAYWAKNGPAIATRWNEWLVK
iGABASnFR1, sequence (P42212 with tags, fused parts or gaps S30R/Y39N/F64L/F99S/N105T/Y145W partner): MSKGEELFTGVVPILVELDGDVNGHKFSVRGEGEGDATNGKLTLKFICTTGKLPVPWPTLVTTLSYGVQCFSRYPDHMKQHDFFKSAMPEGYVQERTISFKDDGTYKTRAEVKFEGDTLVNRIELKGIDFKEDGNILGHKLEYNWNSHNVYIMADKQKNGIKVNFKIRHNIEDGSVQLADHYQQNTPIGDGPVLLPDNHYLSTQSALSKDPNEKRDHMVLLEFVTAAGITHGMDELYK
Text: as §1

iGABASnFR2n, sequence (A0A1B3D787 27-341, stated change not applied): as the sequence (A0A1B3D787 27-341, stated change not applied) above
iGABASnFR2n, sequence (P42212 whole entry Y145W/R168P partner): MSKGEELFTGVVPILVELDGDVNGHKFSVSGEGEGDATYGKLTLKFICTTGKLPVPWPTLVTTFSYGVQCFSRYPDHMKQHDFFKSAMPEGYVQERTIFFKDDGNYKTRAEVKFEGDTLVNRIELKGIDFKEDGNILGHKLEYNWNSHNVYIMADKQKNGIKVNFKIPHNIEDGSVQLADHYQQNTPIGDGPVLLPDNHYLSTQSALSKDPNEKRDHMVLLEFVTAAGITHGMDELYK

SMILES | EC50 (iGABASnFR2n) [µM] | EC50 (iGABASnFR1) [µM]
C[C@H](N)C(=O)O [alanine] | 582 | 1710
N=C(N)NCCC[C@H](N)C(=O)O [arginine] | 3.35 | 59
NC(=O)C[C@H](N)C(=O)O [asparagine] | 5500 | 8490
N[C@@H](CC(=O)O)C(=O)O [aspartate] | 0.526 | 2.39
NCC(CC(=O)O)c1ccc(Cl)cc1 (centres unmarked) [baclofen, reference compound] | 6.3 | 7380
CN1CCc2cc3c(cc2[C@H]1[C@@H]1OC(=O)c2c1ccc1c2OCO1)OCO3 [bicuculline, reference compound] | 9000 | 
NCCc1c[nH]cn1 [histamine] | 9000 | 
CC[C@H](C)[C@H](N)C(=O)O [isoleucine] | 111 | 2.45
NCCCC[C@H](N)C(=O)O [lysine] | 741 | 77.5
CSCC[C@H](N)C(=O)O [methionine] | 9000 | 0.419
NCc1cc(=O)[nH]o1 [muscimol, reference compound] | 2.62 | 5.81
N[C@@H](Cc1ccccc1)C(=O)O [phenylalanine] | 1150 | 3.71
O=C(O)[C@@H]1CCCN1 [proline] | 2490 | 
N[C@@H](CO)C(=O)O [serine] | 5520 | 50.9
C[C@@H](O)[C@H](N)C(=O)O [threonine] | 9000 | 19.9
Cc1ccsc1C(=CCCN1CCC[C@@H](C(=O)O)C1)c1sccc1C [tiagabine, reference compound] | 2230 | 
N[C@@H](Cc1c[nH]c2ccccc12)C(=O)O [tryptophan] | 0.396 | 
CC(C)[C@H](N)C(=O)O [valine] | 1.47 | 1.34
C=CC(N)CCC(=O)O (centres unmarked) [vigabatrin, reference compound] |  | 5430
